The text below walks through data of patent publication US20260070922A1, “PYRAZOLE AND IMIDAZOLE DERIVATIVES AS DUAL OREXIN AND KAPPA-OPIOID RECEPTORS MODULATORS COMPOSITION, METHODS FOR TREATING NEUROLOGICAL AND PSYCHIATRIC DISORDERS” (HAGER BIOSCIENCES, LLC, priority 2022, published 2026).

Assay [1] addresses T1, human orexin-2 receptor (OX2R) (Homo sapiens, UniProt O43614).
T1 construct: expressed in transfected cells; host or cells: CHO cells (G418 selection)
T1 sequence (O43614 1-444): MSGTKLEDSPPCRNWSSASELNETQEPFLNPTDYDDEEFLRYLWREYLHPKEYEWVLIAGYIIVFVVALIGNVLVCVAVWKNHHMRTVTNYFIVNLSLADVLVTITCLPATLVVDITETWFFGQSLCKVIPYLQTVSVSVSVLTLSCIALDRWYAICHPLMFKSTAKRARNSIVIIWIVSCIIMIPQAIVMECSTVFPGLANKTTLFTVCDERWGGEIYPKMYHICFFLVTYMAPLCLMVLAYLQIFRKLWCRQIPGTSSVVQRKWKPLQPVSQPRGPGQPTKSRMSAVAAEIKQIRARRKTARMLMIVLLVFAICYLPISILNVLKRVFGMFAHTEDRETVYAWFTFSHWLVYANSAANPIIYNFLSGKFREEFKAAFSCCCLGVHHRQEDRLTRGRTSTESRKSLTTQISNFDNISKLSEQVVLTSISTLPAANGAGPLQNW
In words: In vitro orexin antagonism assay: intracellular calcium measurement (FLIPR), orexin-A 3 nM as agonist. As to conditions: for inhibition at 1 µM: read-out: OX2R, % Inh. @ 1 uM; for IC50: first value of IC50/Kb cell; for Kb: second value of IC50/Kb cell. Type of assay: cell-based. In short, it runs like this: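 Fluorescence peak on 3 nM orexin-A challenge, read by FLIPR and compared with vehicle, yields IC50 (geometric mean when repeated; may be normalized to an on-plate reference). Antagonists were added 120 min beforehand to fluo-4-loaded recombinant CHO cells expressing human OX1R or OX2R.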

The target of assay [2] is T2, Orexin type 1 (OX1R) receptor (Homo sapiens, UniProt O43613).
T2 construct: expressed in transfected cells; host or cells: CHO cells (G418 selection)
T2 sequence (O43613 1-425): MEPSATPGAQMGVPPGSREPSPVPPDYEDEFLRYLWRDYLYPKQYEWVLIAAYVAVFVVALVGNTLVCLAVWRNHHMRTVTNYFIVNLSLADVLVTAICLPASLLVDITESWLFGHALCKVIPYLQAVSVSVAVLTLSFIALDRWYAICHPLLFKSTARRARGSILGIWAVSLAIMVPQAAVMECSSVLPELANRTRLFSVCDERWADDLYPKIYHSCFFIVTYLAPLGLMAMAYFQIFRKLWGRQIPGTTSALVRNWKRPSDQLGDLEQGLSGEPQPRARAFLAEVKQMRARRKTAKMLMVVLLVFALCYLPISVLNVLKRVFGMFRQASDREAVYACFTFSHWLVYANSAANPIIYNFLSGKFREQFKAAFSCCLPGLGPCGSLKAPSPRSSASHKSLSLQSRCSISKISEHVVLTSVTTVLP
The description is as above. Type of assay: cell-based. As to conditions: for IC50: first value of IC50/Kb cell; for inhibition at 1 µM: read-out: OX1R, % Inh. @ 1 uM; for Kb: second value of IC50/Kb cell. In a few lines: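 CHO cells expressing the human orexin receptor were loaded with 3 μM fluo-4 AM plus 5 mM probenecid, then exposed to antagonist for 120 min before 3 nM orexin-A (final) was added on a FLIPR.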

By IC50 is commonly meant the concentration needed to halve the response being measured. As usually defined, the Kb is the equilibrium dissociation constant of an antagonist, usually derived from a functional assay.

For the molecule `O=C(c1nn2cccnc2c1-c1ccccn1)N1CCC[C@H]1Cn1ccc(-c2ccccn2)n1` [Example 185], the inhibition at 1 µM in assay [1] came to 61%. Besides, in assay [2], the IC50 came out at 16 nM, the inhibition at 1 µM turned out to be 94% and the antagonist dissociation constant (Kb) was determined as 3 nM.

`O=C(c1nn2cccnc2c1-c1ccccn1)N1CCC[C@H]1Cc1nc(-c2ccccn2)no1` [Example 188]: the inhibition at 1 µM in assay [1] is 23%. Further, in assay [2], the IC50 was determined as 29 nM, the inhibition at 1 µM is 82% and the antagonist dissociation constant (Kb) is 6 nM.

Take `O=C(c1nn2cccnc2c1-c1ccccn1)N1CCC[C@H]1Cc1nc(-c2ccc(F)cn2)no1` [Example 189]: in assay [1], the inhibition at 1 µM was determined as 43%. Besides, in assay [2], the IC50 turned out to be 18 nM, the inhibition at 1 µM stood at 94% and the Kb stood at 4 nM.

In the case of `O=C(c1nn2cccnc2c1-c1ccccn1)N1CCC[C@H]1COc1ccc(C(F)(F)F)cn1` [Example 190], the inhibition at 1 µM in assay [1] turned out to be 28%. Moreover, in assay [2], the IC50 amounted to 5 nM, the inhibition at 1 µM worked out at 91% and the antagonist equilibrium constant (Kb) came to 1 nM.

Regarding `O=C(c1c(-c2ncccn2)nn2ccccc12)N1CCC[C@H]1COc1ccc(C(F)(F)F)cn1` [Example 191], the inhibition at 1 µM in assay [1] was 11%. Also, in assay [2], the IC50 is 49 nM, the inhibition at 1 µM was found to be 100% and the antagonist equilibrium constant (Kb) was 10 nM.

With `O=C(c1c(-c2ccccn2)nn2ccccc12)N1CCC[C@H]1COc1ccc(C(F)(F)F)cn1` [Example 192], the inhibition at 1 µM in assay [1] was 49%. Also, in assay [2], the IC50 worked out at 11 nM, the inhibition at 1 µM was found to be 88% and the antagonist dissociation constant (Kb) was determined as 2 nM.

Regarding `O=C(c1nn2cccnc2c1-c1ccccn1)N1CCC[C@H]1Cn1ccc(-c2ccc(F)cn2)n1` [Example 193], the inhibition at 1 µM in assay [1] came to 71%. Moreover, in assay [2], the IC50 turned out to be 16 nM, the inhibition at 1 µM was found to be 91% and the Kb turned out to be 3 nM.

Take `O=C(c1nn2c(c1-c1ccccn1)OCCC2)N1CCC[C@H]1Cn1ccc(-c2ccccn2)n1` [Example 195]: the inhibition at 1 µM in assay [1] was 29%. Further, in assay [2], the IC50 turned out to be 15 nM, the inhibition at 1 µM came out at 100% and the Kb turned out to be 3 nM.

Consider `O=C(c1nn2c(c1-c1ccccn1)COCC2)N1CCC[C@H]1Cn1ccc(-c2ccc(F)cn2)n1` [Example 196], for which, in assay [1], the “OX2R, % Inh. @ 1 uM” value was 39%. Also, in assay [2], the “OX1R, % Inh. @ 1 uM” value amounted to 99%; the IC50 amounted to 24 nM; the antagonist dissociation constant (Kb) is 5 nM.

Take `O=C(c1nn2c(c1-c1ccccn1)OCCC2)N1CCC[C@H]1Cc1nc(-c2ccccn2)no1` [Example 199]: the inhibition at 1 µM came to 8% in assay [1] and 64% in assay [2].

In the case of `O=C(c1nn2c(c1-c1ccccn1)OCCC2)N1CCC[C@H]1COc1ccc(C(F)(F)F)cn1` [Example 201], in assay [1], the inhibition at 1 µM amounted to 19%. Also, in assay [2], the IC50 was 9 nM, the inhibition at 1 µM worked out at 100% and the Kb worked out at 2 nM.

Regarding `O=C(c1c(-c2ncccn2)nn2ccccc12)N1CCC[C@H]1Cn1ccc(-c2ccc(F)cn2)n1` [Example 203], in assay [1], the inhibition at 1 µM came out at 78%. In addition, in assay [2], the IC50 is 17 nM, the inhibition at 1 µM worked out at 98% and the Kb was 4 nM.

`O=C(c1c(-c2ncccn2)nn2ccccc12)N1CCC[C@H]1Cn1cc(-c2ccc(F)cn2)cn1` [Example 204]: the inhibition at 1 µM was 66% in assay [1] and 53% in assay [2].

With `O=C(c1c(-c2ccccn2)nn2ccccc12)N1CCC[C@H]1Cn1ccc(-c2ccc(F)cn2)n1` [Example 205], in assay [1], the IC50 came to 24 nM, the inhibition at 1 µM worked out at 98% and the antagonist dissociation constant (Kb) worked out at 4 nM. In assay [2], the concentration for half-maximal inhibition (IC50) worked out at 12 nM, the inhibition at 1 µM amounted to 99% and the antagonist dissociation constant (Kb) is 3 nM.

Consider `O=C(c1c(-c2ccccn2)nn2ccccc12)N1CCC[C@H]1Cn1cc(-c2ccc(F)cn2)cn1` [Example 206], for which, in assay [1], the IC50 worked out at 62 nM, the inhibition at 1 µM was 83% and the antagonist equilibrium constant (Kb) stood at 11 nM. Moreover, the inhibition at 1 µM in assay [2] was 67%.

In the case of `O=C(c1nc2ccccn2c1-c1ccccn1)N1CCC[C@H]1Cn1ccc(-c2ccc(F)cn2)n1` [Example 207], the inhibition at 1 µM in assay [1] came out at 0%. Also, in assay [2], the IC50 was determined as 30 nM, the inhibition at 1 µM is 99% and the Kb is 6 nM.

With `O=C(c1nc2ccccn2c1-c1ccccn1)N1CCC[C@H]1Cc1nc(-c2ccccn2)no1` [Example 209], the inhibition at 1 µM in assay [1] came to 4%. In assay [2], the 50% inhibitory concentration (IC50) was 300 nM, the inhibition at 1 µM was determined as 75% and the Kb amounted to 63 nM.

`O=C(c1nc2ccccn2c1-c1ccccn1)N1CCC[C@H]1Cc1nc(-c2ccc(F)cn2)no1` [Example 210]: the inhibition at 1 µM in assay [1] was determined as 12%. For the same molecule, in assay [2], the IC50 turned out to be 190 nM, the inhibition at 1 µM was 85% and the Kb turned out to be 40 nM.

Consider `O=C(c1nn2c(c1-c1ccccn1)COCC2)N1CCC[C@H]1Cn1ccc(-c2ccccn2)n1` [Example 211], for which the inhibition at 1 µM in assay [1] is 28%. In assay [2], the IC50 was 19 nM, the inhibition at 1 µM turned out to be 100% and the antagonist dissociation constant (Kb) turned out to be 4 nM.

As for `O=C(c1nn2c(c1-c1ccccn1)COCC2)N1CCC[C@H]1Cn1ccc(-c2ccc(F)cn2)n1` [Example 212], the “OX2R, % Inh. @ 1 uM” value in assay [1] is recorded as 46%. Further, in assay [2], the “OX1R, % Inh. @ 1 uM” value is listed as 96%; the half-inhibitory concentration (IC50) amounted to 35 nM; the antagonist dissociation constant (Kb) was found to be 7 nM.

As to `O=C(c1nn2c(c1-c1ccccn1)COCC2)N1CCC[C@H]1Cn1cc(-c2ccccn2)cn1` [Example 213], in assay [1], the inhibition at 1 µM was 33%. For the same molecule, in assay [2], the IC50 amounted to 220 nM, the inhibition at 1 µM came to 77% and the antagonist dissociation constant (Kb) worked out at 47 nM.

`O=C(c1nn2c(c1-c1ccccn1)COCC2)N1CCC[C@H]1Cn1cc(-c2ccc(F)cn2)cn1` [Example 214]: the inhibition at 1 µM in assay [1] is 32%; in assay [2] it was 66%.

As to `O=C(c1nc2n(c1-c1ccccn1)CCOC2)N1CCC[C@H]1Cn1ccc(-c2ccccn2)n1` [Example 215], the figures for the inhibition at 1 µM in assay [1] and in assay [2] were 12% and 64%, respectively.

Take `O=C(c1nc2n(c1-c1ccccn1)CCOC2)N1CCC[C@H]1Cn1ccc(-c2ccc(F)cn2)n1` [Example 216]: in assay [1], the inhibition at 1 µM was 24%. Also, in assay [2], the IC50 amounted to 160 nM, the inhibition at 1 µM amounted to 70% and the Kb came out at 34 nM.

Consider `O=C(c1nc2n(c1-c1ccccn1)CCOC2)N1CCC[C@H]1Cn1cc(-c2ccccn2)cn1` [Example 217], for which, in assay [1], the inhibition at 1 µM was determined as 57%. In addition, in assay [2], the IC50 amounted to 210 nM, the inhibition at 1 µM was 76% and the Kb is 45 nM.

`O=C(c1nc2n(c1-c1ccccn1)CCOC2)N1CCC[C@H]1Cn1cc(-c2ccc(F)cn2)cn1` [Example 218]: in assay [1], the inhibition at 1 µM came to 74%. Also, in assay [2], the half-inhibitory concentration (IC50) is 120 nM, the inhibition at 1 µM is 79% and the Kb turned out to be 25 nM.

For the molecule `O=C(c1nc2n(c1-c1ccccn1)CCOC2)N1CCC[C@H]1Cc1nc(-c2ccccn2)no1` [Example 219], the inhibition at 1 µM in assay [1] came out at 0%; in assay [2] it was 25%.

Consider `O=C(c1nc2n(c1-c1ccccn1)CCOC2)N1CCC[C@H]1Cc1nc(-c2ccc(F)cn2)no1` [Example 220], for which the inhibition at 1 µM in assay [1] is 0%; in assay [2], 21%.
